{"source": "PubChem BioAssay (NCI)", "test_in_all_cases": "DTP human tumour cell line panel, 48 h", "key": {"[1]": {"test_system": "786-0 renal"}, "[2]": {"test_system": "K-562 leukemia"}, "[3]": {"test_system": "MDA-MB-231 breast"}, "[4]": {"test_system": "MDA-MB-435"}, "[5]": {"test_system": "MDA-N"}, "[6]": {"test_system": "RPMI-8226 leukemia"}, "[7]": {"test_system": "SNB-75 CNS"}, "[8]": {"test_system": "SR leukemia"}, "[9]": {"test_system": "U251 CNS"}, "[10]": {"test_system": "HOP-92 NSCLC"}, "[11]": {"test_system": "RXF 393 renal"}}, "note": "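Five compound concentrations were applied to cells in 96-well plates for 48 hours; endpoints were derived by simple linear interpolation of the resulting dose-response curve. The concentration for 50% growth inhibition is given as GI50. At the TGI there is no net growth.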"}
{"smiles": "Cc1ccc2c(c1)nc(N)n[n+]2[O-]", "values": [{"measurement": "TGI", "setting": "[1]", "result": "> 100", "unit": "µM"}, {"measurement": "TGI", "setting": "[2]", "result": "> 100", "unit": "µM"}, {"measurement": "TGI", "setting": "[3]", "result": "> 100", "unit": "µM"}, {"measurement": "TGI", "setting": "[4]", "result": "> 100", "unit": "µM"}, {"measurement": "TGI", "setting": "[5]", "result": "> 100", "unit": "µM"}, {"measurement": "TGI", "setting": "[6]", "result": "> 100", "unit": "µM"}, {"measurement": "TGI", "setting": "[7]", "result": "> 100", "unit": "µM"}, {"measurement": "TGI", "setting": "[8]", "result": "> 100", "unit": "µM"}, {"measurement": "TGI", "setting": "[9]", "result": "> 100", "unit": "µM"}]}
{"smiles": "COc1cc2oc(-c3ccc(O)cc3)c(OC3OC(C)C(O)C(O)C3O)c(=O)c2c(O)c1OC", "note": "(stereo unspecified)", "values": [{"measurement": "TGI", "setting": "[1]", "result": "> 100", "unit": "µM"}, {"measurement": "TGI", "setting": "[10]", "result": "> 100", "unit": "µM"}, {"measurement": "TGI", "setting": "[2]", "result": "> 100", "unit": "µM"}, {"measurement": "TGI", "setting": "[3]", "result": "> 100", "unit": "µM"}, {"measurement": "TGI", "setting": "[4]", "result": "> 100", "unit": "µM"}, {"measurement": "TGI", "setting": "[5]", "result": "> 100", "unit": "µM"}, {"measurement": "TGI", "setting": "[6]", "result": "> 100", "unit": "µM"}, {"measurement": "TGI", "setting": "[11]", "result": "> 100", "unit": "µM"}, {"measurement": "TGI", "setting": "[7]", "result": "> 100", "unit": "µM"}, {"measurement": "TGI", "setting": "[8]", "result": "> 100", "unit": "µM"}, {"measurement": "TGI", "setting": "[9]", "result": "> 100", "unit": "µM"}]}
{"smiles": "C/C(=N\\NC(=S)NC(C)C)c1nc2ncccc2[nH]1", "values": [{"measurement": "TGI", "setting": "[1]", "result": "> 100", "unit": "µM"}, {"measurement": "TGI", "setting": "[10]", "result": 84.3, "unit": "µM"}, {"measurement": "TGI", "setting": "[2]", "result": "> 100", "unit": "µM"}, {"measurement": "TGI", "setting": "[3]", "result": "> 100", "unit": "µM"}, {"measurement": "TGI", "setting": "[5]", "result": "> 100", "unit": "µM"}, {"measurement": "TGI", "setting": "[6]", "result": "> 100", "unit": "µM"}, {"measurement": "TGI", "setting": "[11]", "result": "> 100", "unit": "µM"}, {"measurement": "TGI", "setting": "[7]", "result": "> 66.7", "unit": "µM"}, {"measurement": "TGI", "setting": "[8]", "result": "> 100", "unit": "µM"}, {"measurement": "TGI", "setting": "[9]", "result": "> 100", "unit": "µM"}]}
{"smiles": "CCC(=O)C(c1ccccc1)c1ccccn1", "note": "(stereo unspecified)", "values": [{"measurement": "TGI", "setting": "[1]", "result": "> 100", "unit": "µM"}, {"measurement": "TGI", "setting": "[10]", "result": "> 100", "unit": "µM"}, {"measurement": "TGI", "setting": "[3]", "result": "> 100", "unit": "µM"}, {"measurement": "TGI", "setting": "[4]", "result": "> 100", "unit": "µM"}, {"measurement": "TGI", "setting": "[5]", "result": "> 100", "unit": "µM"}, {"measurement": "TGI", "setting": "[6]", "result": "> 100", "unit": "µM"}, {"measurement": "TGI", "setting": "[11]", "result": "> 100", "unit": "µM"}, {"measurement": "TGI", "setting": "[7]", "result": "> 100", "unit": "µM"}, {"measurement": "TGI", "setting": "[9]", "result": "> 100", "unit": "µM"}]}
{"smiles": "Cc1[nH]c(/C=C2\\C(=O)Nc3ccc(S(=O)(=O)Cc4c(Cl)cccc4Cl)cc32)c(C)c1C(=O)N1CCC[C@@H]1CN1CCCC1", "values": [{"measurement": "GI50", "setting": "[10]", "result": 2.09, "unit": "µM"}, {"measurement": "TGI", "setting": "[10]", "result": "> 44", "unit": "µM"}, {"measurement": "GI50", "setting": "[2]", "result": 1.63, "unit": "µM"}, {"measurement": "TGI", "setting": "[2]", "result": "> 100", "unit": "µM"}, {"measurement": "GI50", "setting": "[3]", "result": 1.57, "unit": "µM"}, {"measurement": "TGI", "setting": "[3]", "result": 3.16, "unit": "µM"}, {"measurement": "GI50", "setting": "[4]", "result": 0.865, "unit": "µM"}, {"measurement": "TGI", "setting": "[4]", "result": 2.2, "unit": "µM"}]}
{"smiles": "COC1OC(=O)[C@H]2O[N+]([O-])=C(C)[C@@H]12", "note": "(stereo partly specified)", "values": [{"measurement": "TGI", "setting": "[10]", "result": "> 100", "unit": "µM"}, {"measurement": "TGI", "setting": "[2]", "result": "> 100", "unit": "µM"}, {"measurement": "TGI", "setting": "[6]", "result": "> 100", "unit": "µM"}, {"measurement": "TGI", "setting": "[11]", "result": "> 100", "unit": "µM"}, {"measurement": "TGI", "setting": "[7]", "result": "> 100", "unit": "µM"}, {"measurement": "TGI", "setting": "[9]", "result": "> 100", "unit": "µM"}]}
{"smiles": "OCC1CCCC(n2cnc3c(=S)nc[nH]c32)O1", "note": "(stereo unspecified)", "values": [{"measurement": "TGI", "setting": "[1]", "result": "> 100", "unit": "µM"}, {"measurement": "TGI", "setting": "[10]", "result": "> 100", "unit": "µM"}, {"measurement": "TGI", "setting": "[2]", "result": "> 100", "unit": "µM"}, {"measurement": "TGI", "setting": "[3]", "result": "> 100", "unit": "µM"}, {"measurement": "TGI", "setting": "[4]", "result": "> 100", "unit": "µM"}, {"measurement": "TGI", "setting": "[5]", "result": "> 100", "unit": "µM"}, {"measurement": "TGI", "setting": "[6]", "result": "> 100", "unit": "µM"}, {"measurement": "TGI", "setting": "[11]", "result": "> 100", "unit": "µM"}, {"measurement": "TGI", "setting": "[7]", "result": "> 100", "unit": "µM"}, {"measurement": "TGI", "setting": "[8]", "result": "> 100", "unit": "µM"}, {"measurement": "TGI", "setting": "[9]", "result": "> 100", "unit": "µM"}]}
{"smiles": "C=CC(=O)Nc1cccc(-c2nc(SC)nc(Nc3ccccc3OC)c2C#N)c1", "values": [{"measurement": "GI50", "setting": "[10]", "result": 1.7, "unit": "µM"}, {"measurement": "TGI", "setting": "[10]", "result": 4.28, "unit": "µM"}, {"measurement": "GI50", "setting": "[2]", "result": 2.03, "unit": "µM"}, {"measurement": "TGI", "setting": "[2]", "result": 5.62, "unit": "µM"}, {"measurement": "GI50", "setting": "[3]", "result": 1.83, "unit": "µM"}, {"measurement": "TGI", "setting": "[3]", "result": 4.33, "unit": "µM"}, {"measurement": "GI50", "setting": "[4]", "result": 1.93, "unit": "µM"}, {"measurement": "TGI", "setting": "[4]", "result": 4.48, "unit": "µM"}, {"measurement": "GI50", "setting": "[6]", "result": 3.11, "unit": "µM"}, {"measurement": "TGI", "setting": "[6]", "result": "> 100", "unit": "µM"}, {"measurement": "GI50", "setting": "[11]", "result": 1.95, "unit": "µM"}, {"measurement": "TGI", "setting": "[11]", "result": 5.42, "unit": "µM"}, {"measurement": "GI50", "setting": "[7]", "result": 1.5, "unit": "µM"}, {"measurement": "TGI", "setting": "[7]", "result": 4.35, "unit": "µM"}, {"measurement": "GI50", "setting": "[8]", "result": 1.49, "unit": "µM"}, {"measurement": "TGI", "setting": "[8]", "result": 4.19, "unit": "µM"}]}
{"smiles": "O=C(O)c1ccc(NC(c2ccccc2)c2ccc3cccnc3c2O)cc1", "note": "(stereo unspecified)", "values": [{"measurement": "TGI", "setting": "[1]", "result": "> 76.6", "unit": "µM"}, {"measurement": "TGI", "setting": "[10]", "result": "> 100", "unit": "µM"}, {"measurement": "TGI", "setting": "[2]", "result": "> 49.8", "unit": "µM"}, {"measurement": "TGI", "setting": "[3]", "result": "> 61.4", "unit": "µM"}, {"measurement": "TGI", "setting": "[4]", "result": "> 100", "unit": "µM"}, {"measurement": "TGI", "setting": "[5]", "result": "> 100", "unit": "µM"}, {"measurement": "TGI", "setting": "[6]", "result": 28, "unit": "µM"}, {"measurement": "TGI", "setting": "[11]", "result": 28.8, "unit": "µM"}, {"measurement": "TGI", "setting": "[7]", "result": 56.7, "unit": "µM"}, {"measurement": "TGI", "setting": "[8]", "result": "> 100", "unit": "µM"}, {"measurement": "TGI", "setting": "[9]", "result": "> 41.2", "unit": "µM"}]}
{"smiles": "N#Cc1c(NC(=S)NC(=O)c2ccccc2)nc2c(c1-c1ccccc1)CCC2", "values": [{"measurement": "TGI", "setting": "[2]", "result": "> 100", "unit": "µM"}, {"measurement": "TGI", "setting": "[3]", "result": "> 100", "unit": "µM"}, {"measurement": "TGI", "setting": "[4]", "result": "> 100", "unit": "µM"}, {"measurement": "TGI", "setting": "[5]", "result": "> 100", "unit": "µM"}, {"measurement": "TGI", "setting": "[6]", "result": "> 100", "unit": "µM"}, {"measurement": "TGI", "setting": "[7]", "result": "> 100", "unit": "µM"}, {"measurement": "TGI", "setting": "[8]", "result": "> 100", "unit": "µM"}, {"measurement": "TGI", "setting": "[9]", "result": "> 100", "unit": "µM"}]}
{"smiles": "Nc1n[nH]c(=O)[nH]1", "values": [{"measurement": "TGI", "setting": "[10]", "result": "> 100", "unit": "µM"}, {"measurement": "TGI", "setting": "[2]", "result": "> 100", "unit": "µM"}, {"measurement": "TGI", "setting": "[6]", "result": "> 100", "unit": "µM"}, {"measurement": "TGI", "setting": "[11]", "result": "> 100", "unit": "µM"}, {"measurement": "TGI", "setting": "[7]", "result": "> 100", "unit": "µM"}, {"measurement": "TGI", "setting": "[9]", "result": "> 100", "unit": "µM"}]}
{"smiles": "O=C(Nc1ccc(I)cc1C(=O)NCCO)c1cccs1", "values": [{"measurement": "TGI", "setting": "[2]", "result": "> 100", "unit": "µM"}, {"measurement": "TGI", "setting": "[4]", "result": "> 100", "unit": "µM"}, {"measurement": "TGI", "setting": "[6]", "result": "> 100", "unit": "µM"}, {"measurement": "TGI", "setting": "[11]", "result": "> 100", "unit": "µM"}, {"measurement": "TGI", "setting": "[8]", "result": "> 100", "unit": "µM"}, {"measurement": "TGI", "setting": "[9]", "result": "> 100", "unit": "µM"}]}
